# Assay results: ChEMBL document CHEMBL1201862, “PubChem BioAssay data set” (2004)
#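 Cells were grown in 96-well plates and exposed to each compound for 48 hours at five concentrations; endpoints were interpolated linearly between bracketing concentrations, or set to the highest concentration if not reached. GI50 = concentration required for 50% inhibition of growth.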 Activity calls are given as the source filed them. Cut-off read from the data, not from the text of the source: active = GI50 up to about 1.1 µM and inactive = higher.
# Tests used:
# Assay in all cases: DTP human tumour cell line panel, 48 h
# BT-549 = tested on: BT-549
# MOLT-4 = tested on: MOLT-4
# HL-60 = tested on: HL-60
# SK-MEL-5 = tested on: SK-MEL-5
# SN12C = tested on: SN12C
# NCI-H226 = tested on: NCI-H226
# Malme-3M = tested on: Malme-3M
# CAKI-1 = tested on: CAKI-1
# XF498 = tested on: XF498
# SNB-75 = tested on: SNB-75
# NCI/ADR-RES = tested on: NCI/ADR-RES
# DMS-114 = tested on: DMS-114
# OVCAR-5 = tested on: OVCAR-5
# NCI-H460 = tested on: NCI-H460
# M14 = tested on: M14
# SF-295 = tested on: SF-295
# MCF7 = tested on: MCF7
# SK-MEL-2 = tested on: SK-MEL-2
# 786-0 = tested on: 786-0
# KM12 = tested on: KM12
# OVCAR-8 = tested on: OVCAR-8
# OVCAR-3 = tested on: OVCAR-3
# LOX IMVI = tested on: LOX IMVI
# COLO 205 = tested on: COLO 205
# SR = tested on: SR
# DMS-273 = tested on: DMS-273
# HOP-18 = tested on: HOP-18
# TK-10 = tested on: TK-10
# NCI-H522 = tested on: NCI-H522
# NCI-H23 = tested on: NCI-H23
# EKVX = tested on: EKVX
# SNB-78 = tested on: SNB-78
# M19-MEL = tested on: M19-MEL
# SW-620 = tested on: SW-620
# OVCAR-4 = tested on: OVCAR-4
# MDA-MB-435 = tested on: MDA-MB-435
# DU-145 = tested on: DU-145
# Hs-578T = tested on: Hs-578T
# U-251 = tested on: U-251
# MDA-N = tested on: MDA-N
# KM-20L2 = tested on: KM-20L2
# K562 = tested on: K562
# MDA-MB-231 = tested on: MDA-MB-231
# PC-3 = tested on: PC-3
# HCT-15 = tested on: HCT-15
# SF-539 = tested on: SF-539
# RXF 393 = tested on: RXF 393
# UACC-257 = tested on: UACC-257
# RPMI-8226 = tested on: RPMI-8226
# CCRF-CEM = tested on: CCRF-CEM
# HOP-92 = tested on: HOP-92
# UACC-62 = tested on: UACC-62
# DLD-1 = tested on: DLD-1
# A549 = tested on: A549
# HT-29 = tested on: HT-29
# SK-OV-3 = tested on: SK-OV-3
# SNB-19 = tested on: SNB-19
# HCC 2998 = tested on: HCC 2998
# SK-MEL-28 = tested on: SK-MEL-28
# HCT-116 = tested on: HCT-116
# A498 = tested on: A498
# IGROV-1 = tested on: IGROV-1
# SF-268 = tested on: SF-268
# ACHN = tested on: ACHN
# UO-31 = tested on: UO-31
# HOP-62 = tested on: HOP-62
# LXFL 529 = tested on: LXFL 529
smiles,measurement,setting,value
COc1ccc(/C(Cl)=C(\C=O)c2ccc(OC)c(OC)c2)cc1OC,GI50,BT-549,> 100 µM (inactive)
same,GI50,MOLT-4,> 100 µM (inactive)
same,GI50,HL-60,22.2 µM (inactive)
same,GI50,SK-MEL-5,> 81.7 µM (inactive)
same,GI50,SN12C,> 100 µM (inactive)
same,GI50,NCI-H226,91.6 µM (inactive)
same,GI50,Malme-3M,56.5 µM (inactive)
same,GI50,CAKI-1,> 100 µM (inactive)
same,GI50,XF498,> 88.9 µM (inactive)
same,GI50,SNB-75,22.9 µM (inactive)
same,GI50,NCI/ADR-RES,> 91.4 µM (inactive)
same,GI50,DMS-114,> 90.2 µM (inactive)
same,GI50,OVCAR-5,> 45.6 µM (inactive)
same,GI50,NCI-H460,91.4 µM (inactive)
same,GI50,M14,> 100 µM (inactive)
same,GI50,SF-295,30.1 µM (inactive)
same,GI50,MCF7,56.8 µM (inactive)
same,GI50,SK-MEL-2,94.4 µM (inactive)
same,GI50,786-0,> 100 µM (inactive)
same,GI50,KM12,32.5 µM (inactive)
same,GI50,OVCAR-8,> 94.6 µM (inactive)
same,GI50,OVCAR-3,> 46.8 µM (inactive)
same,GI50,LOX IMVI,33.7 µM (inactive)
same,GI50,COLO 205,> 100 µM (inactive)
same,GI50,SR,> 100 µM (inactive)
same,GI50,DMS-273,> 90.4 µM (inactive)
same,GI50,HOP-18,> 98.2 µM (inactive)
same,GI50,TK-10,> 100 µM (inactive)
same,GI50,NCI-H522,43.5 µM (inactive)
same,GI50,NCI-H23,76.6 µM (inactive)
same,GI50,EKVX,> 100 µM (inactive)
same,GI50,SNB-78,> 100 µM (inactive)
same,GI50,M19-MEL,99.3 µM (inactive)
same,GI50,SW-620,> 100 µM (inactive)
same,GI50,OVCAR-4,63.8 µM (inactive)
same,GI50,MDA-MB-435,> 100 µM (inactive)
same,GI50,DU-145,> 100 µM (inactive)
same,GI50,Hs-578T,> 100 µM (inactive)
same,GI50,U-251,> 100 µM (inactive)
same,GI50,MDA-N,> 100 µM (inactive)
same,GI50,KM-20L2,> 100 µM (inactive)
same,GI50,K562,> 100 µM (inactive)
same,GI50,MDA-MB-231,> 100 µM (inactive)
same,GI50,PC-3,> 100 µM (inactive)
same,GI50,HCT-15,83 µM
same,GI50,SF-539,94.6 µM (inactive)
same,GI50,RXF 393,37.2 µM (inactive)
same,GI50,UACC-257,41.7 µM (inactive)
same,GI50,RPMI-8226,70.3 µM (inactive)
same,GI50,CCRF-CEM,> 83.9 µM (inactive)
same,GI50,HOP-92,> 100 µM (inactive)
same,GI50,UACC-62,> 100 µM (inactive)
same,GI50,DLD-1,> 92 µM (inactive)
same,GI50,A549,> 100 µM (inactive)
same,GI50,HT-29,41.6 µM (inactive)
same,GI50,SK-OV-3,> 100 µM (inactive)
same,GI50,SNB-19,> 100 µM (inactive)
same,GI50,HCC 2998,> 97.1 µM (inactive)
same,GI50,SK-MEL-28,> 94.6 µM (inactive)
same,GI50,HCT-116,> 91.4 µM (inactive)
same,GI50,A498,> 94.4 µM (inactive)
same,GI50,IGROV-1,95.3 µM (inactive)
same,GI50,SF-268,37.2 µM (inactive)
same,GI50,ACHN,> 100 µM (inactive)
same,GI50,UO-31,> 100 µM (inactive)
same,GI50,HOP-62,> 84.7 µM (inactive)
O=C1C(Cl)C(c2ccccc2O)N1n1cnc2ccccc2c1=O (stereo unspecified),GI50,LXFL 529,61.1 µM (inactive)
same,GI50,MOLT-4,27.6 µM (inactive)
same,GI50,HL-60,13 µM (inactive)
same,GI50,SK-MEL-5,56.2 µM (inactive)
same,GI50,SN12C,7.08 µM (inactive)
same,GI50,NCI-H226,62.2 µM (inactive)
same,GI50,Malme-3M,75.3 µM (inactive)
same,GI50,CAKI-1,37.8 µM (inactive)
same,GI50,XF498,5.32 µM (inactive)
same,GI50,SNB-75,20.4 µM (inactive)
same,GI50,DMS-114,20 µM (inactive)
same,GI50,OVCAR-5,> 100 µM (inactive)
same,GI50,NCI-H460,35.2 µM (inactive)
same,GI50,M14,80.2 µM (inactive)
same,GI50,SF-295,53.6 µM (inactive)
same,GI50,SK-MEL-2,> 100 µM (inactive)
same,GI50,786-0,47.5 µM (inactive)
same,GI50,KM12,> 100 µM (inactive)
same,GI50,OVCAR-8,92.7 µM (inactive)
same,GI50,OVCAR-3,> 100 µM (inactive)
same,GI50,LOX IMVI,61 µM (inactive)
same,GI50,COLO 205,30.1 µM (inactive)
same,GI50,SR,27.4 µM (inactive)
same,GI50,DMS-273,63.4 µM (inactive)
same,GI50,HOP-18,37 µM (inactive)
same,GI50,TK-10,> 100 µM (inactive)
same,GI50,NCI-H522,23.6 µM (inactive)
same,GI50,NCI-H23,49 µM (inactive)
same,GI50,EKVX,23.9 µM (inactive)
same,GI50,SNB-78,26.2 µM (inactive)
same,GI50,M19-MEL,97.3 µM (inactive)
same,GI50,SW-620,58.7 µM (inactive)
same,GI50,OVCAR-4,23.7 µM (inactive)
same,GI50,U-251,43.3 µM (inactive)
same,GI50,KM-20L2,78.3 µM (inactive)
same,GI50,K562,58.1 µM (inactive)
same,GI50,HCT-15,2.99 µM
same,GI50,RXF 393,22.7 µM (inactive)
same,GI50,UACC-257,46.7 µM (inactive)
same,GI50,RPMI-8226,6.75 µM (inactive)
same,GI50,CCRF-CEM,19.8 µM (inactive)
same,GI50,UACC-62,44.3 µM (inactive)
same,GI50,DLD-1,67 µM (inactive)
same,GI50,A549,63.1 µM (inactive)
same,GI50,HT-29,87.3 µM (inactive)
same,GI50,SK-OV-3,25.1 µM (inactive)
same,GI50,SNB-19,63.8 µM (inactive)
same,GI50,HCC 2998,> 100 µM (inactive)
same,GI50,SK-MEL-28,70.1 µM (inactive)
same,GI50,HCT-116,64.3 µM (inactive)
same,GI50,IGROV-1,61.7 µM (inactive)
same,GI50,SF-268,43.4 µM (inactive)
same,GI50,ACHN,39.4 µM (inactive)
same,GI50,UO-31,50 µM (inactive)
same,GI50,HOP-62,48.5 µM (inactive)
